The target of experiment [1] is TR beta-LBD (thyroid hormone receptor beta) (Homo sapiens (Human), UniProt P10828). Nature of the experiment: LanthaScreen TR-FRET Thyroid Receptor beta Coactivator Assay (agonist screening). Type of experiment: biochemical. The settings on record: for THRβ-Selectivity: THR beta over THR alpha, derived from T3-selectivity normalized data; for EC50: TR-FRET coactivator assay, TR beta-LBD 1.0 nM, 2 hour incubation, average of duplicate runs, read-out: EC50 THRβ-FRET. The method, then: (§1) Example B1: Time-Resolved Fluorescence Resonance Energy Transfer (TR-FRET) Assay for Thyroid Hormone Receptor Agonist Screening
(§2) LanthaScreen™ TR-FRET Thyroid Receptor alpha Coactivator Assay kit (ThermoFisher) and LanthaScreen™ TR-FRET Thyroid Receptor beta Coactivator Assay kit (ThermoFisher) were used for agonist compound screening. Compounds in DMSO were diluted using ECHO Liquid Handler (Labcyte Inc.) into 384 plates in 10-point 3-fold series in duplicate (5 micro M final top concentration). Buffer C (ThermoFisher) was added to each well before the 4× mixture of fluorescein-SCR2-2 coactivator (200 nM final concentration), Terbium-labeled anti-GST antibody (2 nM final concentration), and TR alpha-LBD (0.4 nM final concentration) or TR beta-LBD (1.0 nM final concentration) was added. After 2 hour incubation at room temperature in dark, the TR-FRET signal was measured on an EnVision plate reader (PerkinElmer) with excitation at 340 nm and dual emission readout at 495 and 520 nm with the delay time of 100 micro second and the integration time of 200 micro second. The ratio of emission signal at 520 and at 495 was used to calculate EC50 using GraphPad Prism (GraphPad Software). In every batch of compound screening, T3 (L-3,3′,5-Triiodothyronine sodium salt, >95%) (Calbiochem) was used as reference compound. The EC50 of T3 measured were within 3-fold of the reference value provided by the assay kit manufacturer (ThermoFisher Scientific). The Z′ factors measured in every batch of screening using T3 as high percent effect (HPE) control and 0.5% DMSO as zero percent effect (ZPE) control were in the range of 0.5 to 0.8. Compounds' THR-beta selectivity values are derived from T3-selectivity normalized data.

Experiment [2] deals with TR alpha-LBD (thyroid hormone receptor alpha) (Homo sapiens (Human), UniProt P10827). Nature of the experiment: LanthaScreen TR-FRET Thyroid Receptor alpha Coactivator Assay (agonist screening). It is filed as biochemical. The settings on record: TR alpha-LBD 0.4 nM, 2 hour incubation, average of duplicate runs, read-out: EC50 THRα-FRET. Here is the method: as §1, §2
On the technique in general: Time-resolved FRET reads energy transfer from a long-lived donor to a nearby acceptor.

In general, EC50 refers to the concentration giving half of the maximal effect.

TR alpha-LBD (thyroid hormone receptor alpha), sequence (P10827 other isoform, or with tags, fused parts or gaps del 1-162, other chains not shown): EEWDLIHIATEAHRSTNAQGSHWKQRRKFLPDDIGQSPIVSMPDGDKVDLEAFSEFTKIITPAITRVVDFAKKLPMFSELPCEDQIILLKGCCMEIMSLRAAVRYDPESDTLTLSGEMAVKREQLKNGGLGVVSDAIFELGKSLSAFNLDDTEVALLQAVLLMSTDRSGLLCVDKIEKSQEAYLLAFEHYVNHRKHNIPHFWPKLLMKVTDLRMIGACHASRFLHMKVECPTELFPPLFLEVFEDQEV
TR beta-LBD (thyroid hormone receptor beta), sequence (P10828 217-461): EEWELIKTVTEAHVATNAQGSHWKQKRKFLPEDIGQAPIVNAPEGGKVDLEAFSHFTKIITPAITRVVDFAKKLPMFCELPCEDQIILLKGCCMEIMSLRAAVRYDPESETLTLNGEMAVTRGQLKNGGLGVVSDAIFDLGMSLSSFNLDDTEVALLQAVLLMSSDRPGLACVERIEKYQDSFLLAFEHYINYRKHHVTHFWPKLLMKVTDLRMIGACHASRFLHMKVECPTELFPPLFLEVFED

`CC(C)c1cc(Oc2c(Cl)cc(NC(=O)c3noc(=O)[nH]3)c(F)c2Cl)n[nH]c1=O` [Example 34, N-(3,5-dichloro-2-fluoro-4-((5-isopropyl-6-oxo-1,6-dihydropyridazin-3-yl)oxy)phenyl)-5-oxo-4,5-dihydro-1,2,4-oxadiazole-3-carboxamide]: in experiment [1], the THRβ-Selectivity is listed as 10.9 and the EC50 was determined as 0.166 µM. Also, the EC50 in experiment [2] came to 0.577 µM.
For `CC(CO)c1cc(Oc2c(Cl)cc(NC(=O)c3noc(=O)[nH]3)cc2Cl)nn(C)c1=O` (stereo not drawn) [Example 35, N-(3,5-dichloro-4-((5-(1-hydroxypropan-2-yl)-1-methyl-6-oxo-1,6-dihydropyridazin-3-yl)oxy)phenyl)-5-oxo-4,5-dihydro-1,2,4-oxadiazole-3-carboxamide] the same measures were 15.8, 0.762 µM and 2.6 µM.
For `CC(CO)c1cc(Oc2c(Cl)cc(NC(=O)c3noc(=O)[nH]3)cc2Cl)n[nH]c1=O` (stereo not drawn) [Example 36, N-(3,5-dichloro-4-((5-(1-hydroxypropan-2-yl)-6-oxo-1,6-dihydropyridazin-3-yl)oxy)phenyl)-5-oxo-4,5-dihydro-1,2,4-oxadiazole-3-carboxamide] the same measures were >15.7, 0.469 µM and > 5 µM.
For the molecule `Cn1nc(Oc2c(Cl)cc(NC(=O)c3noc(=O)[nH]3)cc2Cl)cc(C(C)(C)O)c1=O` [Example 37, N-(3,5-dichloro-4-((5-(2-hydroxypropan-2-yl)-1-methyl-6-oxo-1,6-dihydropyridazin-3-yl)oxy)phenyl)-5-oxo-4,5-dihydro-1,2,4-oxadiazole-3-carboxamide], in experiment [1], the THRβ-Selectivity is given as 15.5 and the half-maximal effective concentration (EC50) was 0.0345 µM. Also, the EC50 in experiment [2] worked out at 0.212 µM.

For the origin of these results see patent US10800767B2, “Thyroid hormone receptor beta agonist compounds” (Terns, Inc., priority 2018, dated 2020).
